{"source": "patent US20240376090A1", "about": "“ISOXAZOLE DERIVATIVES AS MODULATORS OF THE 5-HT2A SEROTONIN RECEPTOR USEFUL FOR THE TREATMENT OF DISORDERED RELATED THERETO” (Arena Pharmaceuticals, Inc., priority 2020, published 2024)", "data": [{"molecular_target": "5-HT2A receptor (Homo sapiens (Human), UniProt P28223)", "sequence (P28223 whole entry)": "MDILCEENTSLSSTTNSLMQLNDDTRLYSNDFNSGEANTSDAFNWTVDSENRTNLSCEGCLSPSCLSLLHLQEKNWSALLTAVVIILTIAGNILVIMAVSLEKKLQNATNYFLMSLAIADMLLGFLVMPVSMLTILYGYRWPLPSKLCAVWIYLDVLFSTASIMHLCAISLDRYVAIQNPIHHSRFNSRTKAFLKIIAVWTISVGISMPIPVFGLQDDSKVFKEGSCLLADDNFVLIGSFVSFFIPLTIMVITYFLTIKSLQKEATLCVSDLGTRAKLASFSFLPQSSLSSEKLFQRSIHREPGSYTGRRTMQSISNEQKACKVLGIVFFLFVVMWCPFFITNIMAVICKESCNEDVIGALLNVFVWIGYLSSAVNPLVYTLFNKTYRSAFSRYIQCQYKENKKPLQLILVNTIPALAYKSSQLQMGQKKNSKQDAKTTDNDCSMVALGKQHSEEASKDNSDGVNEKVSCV", "assay": "Radioligand binding assay ([3H]5-HT competition), 5-HT2A", "conditions": "[3H]5-HT radioligand, membranes of HEK293 cells expressing recombinant 5-HT2A; Ki from IC50 by Cheng-Prusoff; read-out: 5-HT2A serotonin binding Ki value", "method": "Competition binding experiments consisted of addition of 5 μL of serially diluted test compound, 50 μL of radioligand stock diluted in Assay Buffer (20 mM HEPES, pH 7.4, 10 mM MgCl2), and 145 μL of diluted membrane expressing the receptor of interest to 96-well microtiter plates, which were then incubated for one hour at room temperature. Assay incubations were terminated by rapid filtration through Perkin Elmer GF/C filtration plates under vacuum pressure using a 96-well Packard filtration apparatus, followed by washing the filter plates several times with ice cold Assay Buffer. Plates were then dried at 45° C. for a minimum of four hours. Finally, 25 μL of BetaScint scintillation cocktail was added to each well and the plates were counted in a Packard TopCount scintillation counter. In each competition study, test compounds were assayed at 10 concentrations with three replicates at each test concentration. Dose-response curves were constructed to determine IC50 values and these were converted to corresponding Ki values using the Cheng-Prusoff equation.", "units": {"Ki": "nM"}, "values": [{"smiles": "CO[C@@H]1CCN(CCOc2ccc(NC(=O)C3CC3)cc2-c2c(C)noc2C)C1", "note": "[Compound 145, (R)—N-(3-(3,5-dimethylisoxazol-4-yl)-4-(2-(3-methoxypyrrolidin-1-yl)ethoxy)phenyl)cyclopropanecarboxamide]", "Ki": 5.51}, {"smiles": "Cc1noc(C)c1-c1cc(NC(=O)C2CC2)ccc1OCCN1CC[C@H](O)C1", "note": "[Compound 147, (S)—N-(3-(3,5-dimethylisoxazol-4-yl)-4-(2-(3-hydroxypyrrolidin-1-yl)ethoxy)phenyl)cyclopropanecarboxamide]", "Ki": 25.2}, {"smiles": "Cc1noc(C)c1-c1cc(NC(=O)C2CC2)ccc1OCCN1CC[C@@H](O)C1", "note": "[Compound 148, (R)—N-(3-(3,5-dimethylisoxazol-4-yl)-4-(2-(3-hydroxypyrrolidin-1-yl)ethoxy)phenyl)cyclopropanecarboxamide]", "Ki": 71.6}, {"smiles": "CCN(C)CCOc1ccc(NC(=O)C2CC2)cc1-c1c(C)noc1C", "note": "[Compound 149, N-(3-(3,5-dimethylisoxazol-4-yl)-4-(2-(ethyl(methyl)amino)ethoxy)phenyl)cyclopropanecarboxamide]", "Ki": 13.9}, {"smiles": "CCCN(C)CCOc1ccc(NC(=O)C2CC2)cc1-c1c(C)noc1C", "note": "[Compound 150, N-(3-(3,5-dimethylisoxazol-4-yl)-4-(2-(methyl(propyl)amino)ethoxy)phenyl)cyclopropanecarboxamide]", "Ki": 13.5}, {"smiles": "Cc1noc(C)c1-c1cc(NC(=O)C2CC2)ccc1OCCN(C)CC1CC1", "note": "[Compound 151, N-(4-(2-((cyclopropylmethyl)(methyl)amino)ethoxy)-3-(3,5-dimethylisoxazol-4-yl)phenyl)cyclopropanecarboxamide]", "Ki": 47.1}, {"smiles": "Cc1noc(C)c1-c1cc(NC(=O)C2CC2)ccc1OCCN(C)C1CCC1", "note": "[Compound 152, N-(4-(2-(cyclobutyl(methyl)amino)ethoxy)-3-(3,5-dimethylisoxazol-4-yl)phenyl)cyclopropanecarboxamide]", "Ki": 41.7}, {"smiles": "CCN(CC)CCOc1ccc(NC(=O)C2CC2)cc1-c1c(C)noc1C", "note": "[Compound 153, N-(4-(2-(diethylamino)ethoxy)-3-(3,5-dimethylisoxazol-4-yl)phenyl)cyclopropanecarboxamide]", "Ki": 109}, {"smiles": "Cc1noc(C)c1-c1cc(NC(=O)C2CC2)ccc1OCCN1CC2(COC2)C1", "note": "[Compound 155, N-[3-(3,5-dimethylisoxazol-4-yl)-4-[2-(2-oxa-6-azaspiro[3.3]heptan-6-yl)ethoxy]phenyl]cyclopropanecarboxamide]", "Ki": 22}, {"smiles": "Cc1noc(C)c1-c1cc(NC(=O)C2CC2)ccc1OCCN1CCN(C)C(=O)C1", "note": "[Compound 156, N-[3-(3,5-dimethylisoxazol-4-yl)-4-[2-(4-methyl-3-oxo-piperazin-1-yl)ethoxy]phenyl]cyclopropanecarboxamide]", "Ki": 145}, {"smiles": "Cc1noc(C)c1-c1cc(NC(=O)C2CC2)ccc1OCCN1CCC12COC2", "note": "[Compound 157, N-[3-(3,5-dimethylisoxazol-4-yl)-4-[2-(6-oxa-1-azaspiro[3.3]heptan-1-yl)ethoxy]phenyl]cyclopropanecarboxamide]", "Ki": 2070}, {"smiles": "Cc1noc(C)c1-c1cc(NC(=O)C2CC2)ccc1OCCN1CCC(CC(=O)O)CC1", "note": "[Compound 158, 2-[1-[2-[4-(cyclopropanecarbonylamino)-2-(3,5-dimethylisoxazol-4-yl)phenoxy]ethyl]-4-piperidyl]acetic acid]", "Ki": 233}, {"smiles": "Cc1noc(C)c1-c1cc(NC(=O)C2CC2)ccc1OCCN1[C@@H]2COC[C@H]1C2", "note": "[Compound 159, N-[3-(3,5-dimethylisoxazol-4-yl)-4-[2-[(1R,5S)-3-oxa-6-azabicyclo[3.1.1]heptan-6-yl]ethoxy]phenyl]cyclopropanecarboxamide]", "Ki": 1.61}, {"smiles": "Cc1noc(C)c1-c1cc(NC(=O)C2CC2)ccc1OCCN1C[C@@H]2C[C@H]1CO2", "note": "[Compound 160, N-(4-(2-((1S,4S)-2-oxa-5-azabicyclo[2.2.1]heptan-5-yl)ethoxy)-3-(3,5-dimethylisoxazol-4-yl)phenyl)cyclopropanecarboxamide]", "Ki": 4.07}]}]}
